Laboratory results as given in paper PMC7469689, “Substituted 4,5′-Bithiazoles as Catalytic Inhibitors of Human DNA Topoisomerase IIα” (Journal of Chemical Information and Modeling, 2020).

Key:
[1] = target: T1, human topo IIα (Homo sapiens, UniProt P11388); test: Human topo IIα-mediated cleavage assay; assay type: biochemical
T1 construct: purchased Inspiralis (Norwich, U.K.)
From the text: To determine whether compounds act as catalytic inhibitors, a cleavage assay was next performed for compounds 1 and 9.
We performed the assay in collaboration with Inspiralis (Norwich, U.K.).

[2] = Solubility observations; assay type: physicochemical; settings: 500 μM; erratic readings
[3] = target: T2, human topo IIα ATPase domain (Homo sapiens, UniProt P11388); test: Microscale thermophoresis (MST) binding; settings: truncated human topo IIα ATPase domain; three independent runs
T2 construct: the ATPase domain of human topo IIα with 1–453 amino acid residues; purchased Inspiralis

[4] = target: T1, human topo IIα; test: HTS relaxation assay of human topo IIα; assay type: biochemical
[5] = target: T3, human topo IIβ (Homo sapiens, UniProt Q02880); test: Human topo IIβ-mediated kDNA decatenation assay; assay type: biochemical
T3 construct: purchased Inspiralis (Norwich, U.K.)
Experimental: We were also interested in whether compounds can act on both isoforms of the human topo II. Thus, we performed human topo IIβ decatenation assays for compounds 1 and 9. […] (see also Tables S5 and S6 for more details).
We made use of the human topo II decatenation assay kit from Inspiralis (Norwich, U.K.) to assess the ability of selected compounds to impede DNA decatenation.[89],[90] It was performed for topo IIα and topo IIβ isoforms using the protocol as described previously.[35]

[6] = test system: HepG2 cells; test: DNA double-strand break induction, γ-H2AX assay; assay type: cell-based, human
[7] = target: T1, human topo IIα; test: ATPase activity (ATP hydrolysis) assay, pyruvate kinase/lactate dehydrogenase coupled; assay type: biochemical
[8] = test system: HepG2 cells; test: Cell proliferation, Ki67 flow cytometry; assay type: cell-based, human; settings: 24 h, 50 μM
[9] = 500 μM (compound 1: solubility problems, erratic readings)

T1 sequence (P11388 whole entry): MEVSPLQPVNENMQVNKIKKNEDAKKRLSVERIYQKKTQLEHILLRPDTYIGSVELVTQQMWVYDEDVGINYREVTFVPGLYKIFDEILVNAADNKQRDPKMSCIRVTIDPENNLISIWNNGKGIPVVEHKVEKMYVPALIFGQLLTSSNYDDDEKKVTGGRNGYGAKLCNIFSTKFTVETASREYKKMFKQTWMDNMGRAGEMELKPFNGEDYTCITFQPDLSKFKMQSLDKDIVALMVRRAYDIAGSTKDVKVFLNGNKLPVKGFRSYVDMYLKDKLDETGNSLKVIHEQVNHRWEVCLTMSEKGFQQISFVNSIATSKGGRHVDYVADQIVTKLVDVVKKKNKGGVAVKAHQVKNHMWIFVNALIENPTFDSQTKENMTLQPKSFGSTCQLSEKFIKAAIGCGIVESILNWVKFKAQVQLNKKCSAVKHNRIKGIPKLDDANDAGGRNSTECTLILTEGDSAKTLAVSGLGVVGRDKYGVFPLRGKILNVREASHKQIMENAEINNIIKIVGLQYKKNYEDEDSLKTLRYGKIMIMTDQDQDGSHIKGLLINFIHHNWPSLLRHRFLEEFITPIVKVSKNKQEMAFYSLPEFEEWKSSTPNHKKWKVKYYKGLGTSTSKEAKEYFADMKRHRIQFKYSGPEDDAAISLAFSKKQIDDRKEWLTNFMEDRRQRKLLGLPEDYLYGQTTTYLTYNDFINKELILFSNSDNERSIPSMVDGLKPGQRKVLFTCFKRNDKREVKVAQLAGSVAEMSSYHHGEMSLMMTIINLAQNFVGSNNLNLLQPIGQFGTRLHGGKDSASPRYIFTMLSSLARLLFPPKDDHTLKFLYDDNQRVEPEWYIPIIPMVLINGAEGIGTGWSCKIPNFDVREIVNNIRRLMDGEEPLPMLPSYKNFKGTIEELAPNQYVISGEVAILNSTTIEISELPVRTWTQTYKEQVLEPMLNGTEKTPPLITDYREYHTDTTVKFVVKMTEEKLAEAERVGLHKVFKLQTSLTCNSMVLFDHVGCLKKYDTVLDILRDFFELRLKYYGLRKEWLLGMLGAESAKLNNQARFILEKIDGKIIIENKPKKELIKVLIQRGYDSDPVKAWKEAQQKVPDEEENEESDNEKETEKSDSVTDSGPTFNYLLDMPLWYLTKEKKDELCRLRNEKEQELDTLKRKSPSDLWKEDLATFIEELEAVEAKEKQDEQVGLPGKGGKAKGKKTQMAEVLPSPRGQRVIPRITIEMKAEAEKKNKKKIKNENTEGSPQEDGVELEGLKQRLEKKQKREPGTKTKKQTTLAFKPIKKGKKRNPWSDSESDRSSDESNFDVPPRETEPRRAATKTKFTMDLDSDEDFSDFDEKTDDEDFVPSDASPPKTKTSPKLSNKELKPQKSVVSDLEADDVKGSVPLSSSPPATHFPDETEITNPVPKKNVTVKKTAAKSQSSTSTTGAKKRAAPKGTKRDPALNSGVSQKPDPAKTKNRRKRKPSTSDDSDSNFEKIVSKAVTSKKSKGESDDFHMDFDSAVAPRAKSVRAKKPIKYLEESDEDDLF
T3 sequence (Q02880 whole entry): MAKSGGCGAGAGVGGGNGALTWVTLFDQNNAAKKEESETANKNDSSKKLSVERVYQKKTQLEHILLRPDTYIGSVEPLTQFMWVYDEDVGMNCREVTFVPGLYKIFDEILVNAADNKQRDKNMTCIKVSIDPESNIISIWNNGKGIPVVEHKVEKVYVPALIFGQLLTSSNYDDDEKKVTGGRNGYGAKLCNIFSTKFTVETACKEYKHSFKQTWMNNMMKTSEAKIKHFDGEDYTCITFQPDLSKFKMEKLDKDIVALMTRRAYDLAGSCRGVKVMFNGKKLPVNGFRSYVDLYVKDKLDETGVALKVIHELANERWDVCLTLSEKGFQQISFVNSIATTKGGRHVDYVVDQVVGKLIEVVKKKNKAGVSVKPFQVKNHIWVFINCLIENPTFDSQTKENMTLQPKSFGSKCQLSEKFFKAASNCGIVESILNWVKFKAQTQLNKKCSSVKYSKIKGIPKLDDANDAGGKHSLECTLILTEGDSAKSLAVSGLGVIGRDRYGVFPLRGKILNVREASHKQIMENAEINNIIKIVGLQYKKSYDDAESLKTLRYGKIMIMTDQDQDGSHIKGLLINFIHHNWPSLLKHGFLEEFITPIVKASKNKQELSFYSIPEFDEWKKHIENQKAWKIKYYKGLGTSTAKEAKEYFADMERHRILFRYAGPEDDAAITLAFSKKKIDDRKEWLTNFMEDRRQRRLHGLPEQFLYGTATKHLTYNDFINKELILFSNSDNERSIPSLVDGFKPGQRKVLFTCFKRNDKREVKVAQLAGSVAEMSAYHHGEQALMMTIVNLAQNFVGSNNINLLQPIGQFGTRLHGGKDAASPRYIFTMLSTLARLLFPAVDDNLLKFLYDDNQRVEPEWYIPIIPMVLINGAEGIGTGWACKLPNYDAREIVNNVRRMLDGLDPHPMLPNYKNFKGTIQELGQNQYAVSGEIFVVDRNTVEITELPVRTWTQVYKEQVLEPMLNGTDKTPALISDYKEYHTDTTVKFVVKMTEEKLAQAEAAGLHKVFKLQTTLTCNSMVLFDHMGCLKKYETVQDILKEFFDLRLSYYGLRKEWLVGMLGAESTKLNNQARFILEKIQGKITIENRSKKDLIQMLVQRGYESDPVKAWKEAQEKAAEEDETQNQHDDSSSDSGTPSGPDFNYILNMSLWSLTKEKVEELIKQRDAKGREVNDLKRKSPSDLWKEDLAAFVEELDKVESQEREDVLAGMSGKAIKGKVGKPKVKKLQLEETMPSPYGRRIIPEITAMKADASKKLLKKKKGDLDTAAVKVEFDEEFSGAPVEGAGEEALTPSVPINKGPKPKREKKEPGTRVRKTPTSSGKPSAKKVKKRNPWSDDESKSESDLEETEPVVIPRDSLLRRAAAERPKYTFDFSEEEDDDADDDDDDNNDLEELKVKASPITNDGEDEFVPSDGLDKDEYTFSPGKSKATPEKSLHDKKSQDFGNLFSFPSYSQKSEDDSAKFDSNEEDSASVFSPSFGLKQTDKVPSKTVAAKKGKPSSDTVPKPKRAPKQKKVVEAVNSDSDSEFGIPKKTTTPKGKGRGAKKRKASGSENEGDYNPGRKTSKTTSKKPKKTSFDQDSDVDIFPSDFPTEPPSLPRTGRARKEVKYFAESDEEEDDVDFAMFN
T2 sequence (P11388 1-453): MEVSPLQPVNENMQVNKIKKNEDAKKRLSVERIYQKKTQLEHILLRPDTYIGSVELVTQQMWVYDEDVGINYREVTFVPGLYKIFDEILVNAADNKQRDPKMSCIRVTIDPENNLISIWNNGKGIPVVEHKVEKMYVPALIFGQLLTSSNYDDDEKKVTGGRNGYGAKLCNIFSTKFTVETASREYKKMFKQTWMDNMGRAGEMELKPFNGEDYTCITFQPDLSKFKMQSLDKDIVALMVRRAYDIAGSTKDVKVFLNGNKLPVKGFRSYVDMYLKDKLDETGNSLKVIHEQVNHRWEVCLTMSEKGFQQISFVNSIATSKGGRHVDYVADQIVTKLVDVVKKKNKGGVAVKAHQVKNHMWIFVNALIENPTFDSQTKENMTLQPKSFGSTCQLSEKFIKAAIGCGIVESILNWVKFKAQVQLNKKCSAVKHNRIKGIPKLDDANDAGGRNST

% Linear DNA (first column) ([1]; 3.9 μM): 8.05%
% Linear DNA (second column) ([1]; 3.9 μM): 5.57%
% Linear DNA (first column) ([1]; 31.5 μM): 6.32%
% Linear DNA (second column) ([1]; 31.5 μM): 7.77%
% Linear DNA (first column) ([1]; 125 μM): 3.02%
% Linear DNA (second column) ([1]; 125 μM): 2.85%
% Linear DNA (first column) ([1]; 500 μM): 2.45%
% Linear DNA (second column) ([1]; 500 μM): 2.98%
solubility in the ATPase assay [2]: solubility problems
Kd [3]: 50.6 ± 7.6 µM
IC50 [4]: 33.4 µM
inhibition of decatenation ([5]; 125 μM): completely inhibited
inhibition of decatenation ([5]; 500 μM): completely inhibited
Percentage ATPase activity Run 1 ([7]; 3.9 μM): 92.25%
Percentage ATPase activity Run 2 ([7]; 3.9 μM): 88.37%
Percentage ATPase activity Run 1 ([7]; 31.5 μM): 96.12%
Percentage ATPase activity Run 2 ([7]; 31.5 μM): 94.57%
Percentage ATPase activity Run 1 ([7]; 125 μM): 24.81%
Percentage ATPase activity Run 2 ([7]; 125 μM): 16.28%
inhibition of topo IIα-mediated ATP hydrolysis (in words) ([7]; 125 μM): almost fully inhibited
Percentage ATPase activity Run 1 [7, 9]: 65.12%
Percentage ATPase activity Run 2 [7, 9]: 36.43%
SMILES: Cc1nc(N)sc1-c1csc(Nc2ccc(C(F)(F)F)cc2)n1 [Compound 1]
linear DNA formation in cleavage assay (in words) ([1]; four concentrations): did not reveal a significant amount of linear DNA above the background level
induction of DNA double-strand breaks (γH2AX) ([6]; 10 μM): did not induce an increase in DNA-DSB formation
induction of DNA double-strand breaks (γH2AX) ([6]; 50 μM): did not induce an increase in DNA-DSB formation
cell proliferation (Ki67) [8]: 65.1%
